Test results published in patent publication US20250304623A1, “PEPTIDES FOR INTRACELLULAR DELIVERY” (UNIVERSIDADE DE SANTIAGO DE COMPOSTELA, priority 2022, published 2025).
*: point of attachment. NHNH2 = NN*

Legend:
Assay type in all cases: cell-based
Hela cells = assay: RLuc pDNA delivery, robotic library screening, HeLa
[1] = system: Hek293 cells expressing EGFP; assay: EGFP-targeting siRNA delivery (GFP silencing vs siMOCK), Hek293
Hek293 cells = assay: RLuc pDNA delivery, robotic library screening, Hek293
HCT116 cells = assay: RLuc pDNA delivery, robotic library screening, HCT116
A549 cells = assay: RLuc pDNA delivery, robotic library screening, A549
Procedure, shortened: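 A549 cells in DMEM+10% FBS were washed twice with PBS and exposed for 4 h to amphiphile/RLuc pDNA complexes prepared from DMSO stocks diluted in DMEM. After medium replacement and 72 hours, cells in HBSS were incubated at 37° C. for 30 minutes, basal then total luminescence measured after 5 μM coelenterazine h; background from untransfected cells was subtracted.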

Substance: Ac-RRLK*RLK*RRLK*RL-NH2 [Peptide 13.3]
- mean luminescent intensity (RLuc pDNA) (Hela cells; HeLa, Dodecanal, 5 μM): 18306 RLU
- mean luminescent intensity (RLuc pDNA) (Hela cells; HeLa, Petroselinyl, 10 μM): 4639 RLU
- mean luminescent intensity (RLuc pDNA) (Hela cells; Hela, Dodecanal, 10 μM): 23656 RLU
- mean luminescent intensity (RLuc pDNA) (Hela cells; Hela, Myristoleyl, 5 μM): 17325 RLU
- mean luminescent intensity (RLuc pDNA) (Hela cells; Hela, Myristoleyl, 10 μM): 2310 RLU
- mean luminescent intensity (RLuc pDNA) (Hela cells; Hela, Myristoleyl, 15 μM): −37 RLU
- mean luminescent intensity (RLuc pDNA) (Hela cells; Hela, Oleyl, 15 μM): 1922 RLU
- mean luminescent intensity (RLuc pDNA) (Hela cells; Hela, Palmitoleyl, 5 μM): 18783 RLU
- mean luminescent intensity (RLuc pDNA) (Hela cells; Hela, Palmitoleyl, 10 μM): 105810 RLU
- mean luminescent intensity (RLuc pDNA) (Hela cells; Hela, Palmitoleyl, 15 μM): 137093 RLU
- mean luminescent intensity (RLuc pDNA) (Hela cells; Hela, Petroselinyl, 5 μM): 657 RLU
- mean luminescent intensity (RLuc pDNA) (Hela cells; Hela, Petroselinyl, 15 μM): 90989 RLU
- percentage of GFP-silencing relative to siMOCK ([1]; Dodecanal, 5 μM): 52%
- percentage of GFP-silencing relative to siMOCK ([1]; Dodecanal, 10 μM): 44%
- percentage of GFP-silencing relative to siMOCK ([1]; Dodecanal, 15 μM): 48%
- percentage of GFP-silencing relative to siMOCK ([1]; Myristoleyl, 15 μM): 25%
- percentage of GFP-silencing relative to siMOCK ([1]; Oleyl, 10 μM): 2%
- percentage of GFP-silencing relative to siMOCK ([1]; Palmitoleyl, 5 μM): 42%
- percentage of GFP-silencing relative to siMOCK ([1]; Petroselinyl, 5 μM): 18%
- percentage of GFP-silencing relative to siMOCK ([1]; Petroselinyl, 10 μM): 0%
- percentage of GFP-silencing relative to siMOCK ([1]; Petroselinyl, 15 μM): 20%
- mean luminescent intensity (RLuc pDNA) (Hek293 cells; Dodecanal, 5 μM): 295675 RLU
- mean luminescent intensity (RLuc pDNA) (Hek293 cells; Myristoleyl, 5 μM): 368875 RLU
- mean luminescent intensity (RLuc pDNA) (HCT116 cells; Dodecanal, 5 μM): 60338 RLU
- mean luminescent intensity (RLuc pDNA) (HCT116 cells; Dodecanal, 10 μM): 4741 RLU
- mean luminescent intensity (RLuc pDNA) (HCT116 cells; Myristoleyl, 5 μM): 51434 RLU
- mean luminescent intensity (RLuc pDNA) (HCT116 cells; Myristoleyl, 10 μM): 32315 RLU
- mean luminescent intensity (RLuc pDNA) (HCT116 cells; Myristoleyl, 15 μM): 3431 RLU
- mean luminescent intensity (RLuc pDNA) (HCT116 cells; Oleyl, 15 μM): 1949 RLU
- mean luminescent intensity (RLuc pDNA) (HCT116 cells; Palmitoleyl, 5 μM): 142094 RLU
- mean luminescent intensity (RLuc pDNA) (HCT116 cells; Palmitoleyl, 15 μM): 17328 RLU
- mean luminescent intensity (RLuc pDNA) (HCT116 cells; Petroselinyl, 5 μM): 14318 RLU
- mean luminescent intensity (RLuc pDNA) (HCT116 cells; Petroselinyl, 10 μM): 99695 RLU
- mean luminescent intensity (RLuc pDNA) (HCT116 cells; Petroselinyl, 15 μM): 36052 RLU
- mean luminescent intensity (RLuc pDNA) (A549 cells; Dodecanal, 10 μM): 964 RLU
- mean luminescent intensity (RLuc pDNA) (A549 cells; Dodecanal, 15 μM): 1174 RLU
- mean luminescent intensity (RLuc pDNA) (A549 cells; Myristoleyl, 10 μM): 2097 RLU
- mean luminescent intensity (RLuc pDNA) (A549 cells; Oleyl, 10 μM): 1248 RLU
- mean luminescent intensity (RLuc pDNA) (A549 cells; Oleyl, 15 μM): 1919 RLU
- mean luminescent intensity (RLuc pDNA) (A549 cells; Palmitoleyl, 10 μM): 2647 RLU
- mean luminescent intensity (RLuc pDNA) (A549 cells; Palmitoleyl, 15 μM): 2262 RLU
- mean luminescent intensity (RLuc pDNA) (A549 cells; Petroselinyl, 15 μM): 2205 RLU

Substance: Ac-RRLK*RLLRRLK*RLK*RRL-NH2 (Ac-RRLK(NHNH2)RLLRRLK(NHNH2)RLK(NHNH2)RRL-NH2; not fully specified; printed as Ac-RRLK*RLLRRLK*RLK*RRL-NH2; also: K*4,K*11,K*14: native or modified lysine (ε-amide to a linker)) [Peptide 17.3]
- mean luminescent intensity (RLuc pDNA) (Hela cells; HeLa, Petroselinyl, 10 μM): 85712 RLU
- mean luminescent intensity (RLuc pDNA) (Hela cells; Hela, Dodecanal, 10 μM): 1535 RLU
- mean luminescent intensity (RLuc pDNA) (Hela cells; Hela, Dodecanal, 15 μM): 1856 RLU
- mean luminescent intensity (RLuc pDNA) (Hela cells; Hela, Myristoleyl, 5 μM): 309 RLU
- mean luminescent intensity (RLuc pDNA) (Hela cells; Hela, Myristoleyl, 10 μM): −392 RLU
- mean luminescent intensity (RLuc pDNA) (Hela cells; Hela, Oleyl, 10 μM): 2071 RLU
- mean luminescent intensity (RLuc pDNA) (Hela cells; Hela, Oleyl, 15 μM): 2261 RLU
- mean luminescent intensity (RLuc pDNA) (Hela cells; Hela, Palmitoleyl, 5 μM): 190106 RLU
- mean luminescent intensity (RLuc pDNA) (Hela cells; Hela, Palmitoleyl, 10 μM): 246511 RLU
- mean luminescent intensity (RLuc pDNA) (Hela cells; Hela, Palmitoleyl, 15 μM): 163602 RLU
- mean luminescent intensity (RLuc pDNA) (Hela cells; Hela, Petroselinyl, 5 μM): 237718 RLU
- mean luminescent intensity (RLuc pDNA) (Hela cells; Hela, Petroselinyl, 15 μM): 7153 RLU
- percentage of GFP-silencing relative to siMOCK ([1]; Myristoleyl, 10 μM): 48%
- percentage of GFP-silencing relative to siMOCK ([1]; Oleyl, 15 μM): 25%
- percentage of GFP-silencing relative to siMOCK ([1]; Palmitoleyl, 10 μM): 37%
- percentage of GFP-silencing relative to siMOCK ([1]; Petroselinyl, 5 μM): 9%
- percentage of GFP-silencing relative to siMOCK ([1]; Petroselinyl, 15 μM): 52%
- mean luminescent intensity (RLuc pDNA) (Hek293 cells; Dodecanal, 10 μM): 12692 RLU
- mean luminescent intensity (RLuc pDNA) (Hek293 cells; Dodecanal, 15 μM): 3248 RLU
- mean luminescent intensity (RLuc pDNA) (Hek293 cells; Myristoleyl, 5 μM): 158771 RLU
- mean luminescent intensity (RLuc pDNA) (Hek293 cells; Myristoleyl, 10 μM): 4717 RLU
- mean luminescent intensity (RLuc pDNA) (Hek293 cells; Myristoleyl, 15 μM): −110 RLU
- mean luminescent intensity (RLuc pDNA) (Hek293 cells; Palmitoleyl, 5 μM): 10403 RLU
- mean luminescent intensity (RLuc pDNA) (Hek293 cells; Palmitoleyl, 10 μM): 1319 RLU
- mean luminescent intensity (RLuc pDNA) (Hek293 cells; Palmitoleyl, 15 μM): −644 RLU
- mean luminescent intensity (RLuc pDNA) (HCT116 cells; Dodecanal, 10 μM): 1102 RLU
- mean luminescent intensity (RLuc pDNA) (HCT116 cells; Myristoleyl, 5 μM): 7561 RLU
- mean luminescent intensity (RLuc pDNA) (HCT116 cells; Myristoleyl, 10 μM): −331 RLU
- mean luminescent intensity (RLuc pDNA) (HCT116 cells; Oleyl, 10 μM): 1799 RLU
- mean luminescent intensity (RLuc pDNA) (HCT116 cells; Oleyl, 15 μM): 1957 RLU
- mean luminescent intensity (RLuc pDNA) (HCT116 cells; Palmitoleyl, 5 μM): 14037 RLU
- mean luminescent intensity (RLuc pDNA) (HCT116 cells; Palmitoleyl, 10 μM): 5954 RLU
- mean luminescent intensity (RLuc pDNA) (HCT116 cells; Palmitoleyl, 15 μM): 892 RLU
- mean luminescent intensity (RLuc pDNA) (HCT116 cells; Petroselinyl, 5 μM): 46486 RLU
- mean luminescent intensity (RLuc pDNA) (HCT116 cells; Petroselinyl, 10 μM): 11022 RLU
- mean luminescent intensity (RLuc pDNA) (HCT116 cells; Petroselinyl, 15 μM): 1651 RLU
- mean luminescent intensity (RLuc pDNA) (A549 cells; Dodecanal, 10 μM): 1381 RLU
- mean luminescent intensity (RLuc pDNA) (A549 cells; Dodecanal, 15 μM): 1660 RLU
- mean luminescent intensity (RLuc pDNA) (A549 cells; Myristoleyl, 10 μM): 1545 RLU
- mean luminescent intensity (RLuc pDNA) (A549 cells; Myristoleyl, 15 μM): 2581 RLU
- mean luminescent intensity (RLuc pDNA) (A549 cells; Oleyl, 10 μM): 1201 RLU
- mean luminescent intensity (RLuc pDNA) (A549 cells; Oleyl, 15 μM): 1552 RLU
- mean luminescent intensity (RLuc pDNA) (A549 cells; Palmitoleyl, 5 μM): 2518 RLU
- mean luminescent intensity (RLuc pDNA) (A549 cells; Palmitoleyl, 15 μM): 2585 RLU
- mean luminescent intensity (RLuc pDNA) (A549 cells; Petroselinyl, 15 μM): 2614 RLU
